Patent US9999222B2, “Herbicidal combination comprising azines” (BASF SE, priority 2014, dated 2018)
Values joined by “and” are separate entries in the source; they are usually repeats but may differ in a detail not shown here. Equal entries are not always repeated. Where two headings read alike, the source gives them in different places.

Tests used:
Assay in all cases: Greenhouse test, pre-emergence treatment
ALOMY = type: in vivo, Alopecurus myosuroides; settings: pre-emergence
How it was run: (§1)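 Seeds were sown in loamy sand with about 3.0% humus, and compounds in water were sprayed immediately after sowing, alone or as combinations formulated as 10% emulsion concentrates. Plants grew under hoods until rooted, at 10-25 °C or 20-35 °C by species, for 2 to 4 weeks. Damage was scored 0-100 (100 = no emergence or complete destruction), and Colby expected values were E=X+Y−(X·Y/100).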

ECHCG = type: in vivo, Echinocloa crus-galli; settings: Echinochloa crus-galli, 480 h, read-out: observed % activity 20 DAT
How it was run: as §1

POLCO = type: in vivo, Polygonum convolvulus; settings: pre-emergence
How it was run: as §1

SETFA = type: in vivo, Setaria faberi
How it was run: as §1

AVEFA = type: in vivo, Avena fatua; settings: pre-emergence
How it was run: as §1

BRADC = type: in vivo, Brachiaria decumbens; settings: Urochloa decumbens, pre-emergence, 480 h
How it was run: as §1

COMBE = type: in vivo, Commelina benghalensis; settings: Commelina benghalensis, 480 h, pre-emergence, read-out: observed % activity 20 DAT
How it was run: as §1

EPHHL = type: in vivo, Euphorbia heterophylla; settings: Euphorbia heterophylla, pre-emergence, 480 h, pre-emergence, 1000 g ai/ha; read-out: observed % activity 20 DAT
How it was run: as §1

GALAP = type: in vivo, Galium aparine; settings: Galium aparine, pre-emergence, 480 h, 500 g ai/ha, 20 DAT; read-out: observed % activity
How it was run: as §1

GERPU = type: in vivo, Geranium pusillum; settings: Geranium pusillum, pre-emergence, 480 h, pre-emergence, read-out: observed % activity 20 DAT
How it was run: as §1

KCHSC = type: in vivo, Kochia scoparia; settings: Bassia scoparia, 480 h, pre-emergence, read-out: observed % activity 20 DAT
How it was run: as §1

LOLMU = type: in vivo, Lolium multiflorum; settings: Lolium multiflorum, pre-emergence, 480 h, pre-emergence, read-out: observed % activity 20 DAT
How it was run: as §1

PHACA = type: in vivo, Phalaris canariensis; settings: Phalaris canariensis, pre-emergence, 480 h, pre-emergence, read-out: observed % activity 20 DAT
How it was run: as §1

SORHA = type: in vivo, Sorghum halepense; settings: Sorghum halepense, pre-emergence, 480 h, 20 DAT, read-out: observed % activity

CCC(CC)Nc1c([N+](=O)[O-])cc(C)c(C)c1[N+](=O)[O-] [Pendimethalin, pendimethalin]
inhibition at 250 g/ha (ALOMY; Alopecurus myosuroides, 480 h, 250 g ai/ha, 20 DAT, read-out: observed % activity): 60%
inhibition at 500 g/ha (ALOMY; Alopecurus myosuroides, 480 h, 500 g ai/ha, 20 DAT, read-out: observed % activity): 85%
pest or weed control at 250 g/ha (ALOMY; Alopecurus myosuroides, 480 h, 250 g ai/ha, read-out: observed % activity 20 DAT): 45%
pest or weed control at 500 g/ha (ALOMY; Alopecurus myosuroides, 480 h, 500 g ai/ha, read-out: observed % activity 20 DAT): 65%
pest or weed control at 1000 g/ha (ALOMY; Alopecurus myosuroides, 480 h, 1000 g ai/ha, read-out: observed % activity 20 DAT): 80%
inhibition at 125 g/ha (ALOMY; Alopecurus myosuroides, 480 h, use rate 125 g ai/ha, read-out: observed % activity 20 DAT): 55%
pest or weed control at 250 g/ha (ALOMY; Alopecurus myosuroides, 480 h, use rate 250 g ai/ha, 20 DAT, read-out: observed % activity 20 DAT): 15%
pest or weed control at 1000 g/ha (ALOMY; Alopecurus myosuroides, 480 h, use rate 1000 g ai/ha, 20 DAT, read-out: observed % activity 20 DAT): 95%
inhibition at 1000 g/ha (ALOMY; Alopecurus myosuroides, 480 h, use rate 1000 g ai/ha, read-out: observed % activity 20 DAT): 95%
observed % activity 20 DAT (ALOMY; use rate 500 g ai/ha): 65% and 90%
observed % activity 20 DAT (ALOMY; use rate 1000 g ai/ha): 75%
inhibition at 125 g/ha (ECHCG; use rate 125 g ai/ha): 95%
pest or weed control at 250 g/ha (ECHCG; use rate 250 g ai/ha, 20 DAT): 98%
inhibition at 250 g/ha (ECHCG; use rate 250 g ai/ha): 98%
pest or weed control at 500 g/ha (POLCO; Fallopia convolvulus, 480 h, use rate 500 g ai/ha, 20 DAT, read-out: observed % activity 20 DAT): 60%
inhibition at 250 g/ha (POLCO; Fallopia convolvulus, 480 h, 250 g ai/ha, 20 DAT, read-out: observed % activity): 50%
inhibition at 500 g/ha (POLCO; Fallopia convolvulus, 480 h, 500 g ai/ha, 20 DAT, read-out: observed % activity): 60%
inhibition at 125 g/ha (POLCO; Fallopia convolvulus, 480 h, use rate 125 g ai/ha, read-out: observed % activity 20 DAT): 0%
inhibition at 500 g/ha (POLCO; Fallopia convolvulus, 480 h, use rate 500 g ai/ha, read-out: observed % activity 20 DAT): 60%
observed % activity 20 DAT (POLCO; use rate 500 g ai/ha): 45%
inhibition at 125 g/ha (SETFA; Setaria faberi, 480 h, use rate 125 g ai/ha, read-out: observed % activity 20 DAT): 98%
inhibition at 500 g/ha (SETFA; Setaria faberi, 480 h, use rate 500 g ai/ha, read-out: observed % activity 20 DAT): 98%
observed % activity 20 DAT (SETFA; use rate 500 g ai/ha, 20 DAT): 98%
inhibition at 500 g/ha (AVEFA; Avena fatua, 480 h, 500 g ai/ha, 20 DAT, read-out: observed % activity): 0%
observed % activity 20 DAT (AVEFA; 250 g ai/ha): 0%
inhibition at 500 g/ha (BRADC; 500 g ai/ha, 20 DAT, read-out: observed % activity): 75%
pest or weed control at 250 g/ha (BRADC; 250 g ai/ha, read-out: observed % activity 20 DAT): 35%
pest or weed control at 500 g/ha (BRADC; 500 g ai/ha, read-out: observed % activity 20 DAT): 55%
pest or weed control at 500 g/ha (COMBE; 500 g ai/ha): 10%
pest or weed control at 1000 g/ha (COMBE; 1000 g ai/ha): 40%
pest or weed control at 1000 g/ha (EPHHL): 55%
inhibition at 500 g/ha (GALAP): 30%
pest or weed control at 125 g/ha (GERPU; use rate 125 g ai/ha, 20 DAT): 90%
inhibition at 125 g/ha (GERPU; use rate 125 g ai/ha): 70%
inhibition at 250 g/ha (GERPU; use rate 250 g ai/ha): 90%
pest or weed control at 500 g/ha (GERPU; use rate 500 g ai/ha, 20 DAT): 70%
pest or weed control at 500 g/ha (KCHSC; use rate 500 g ai/ha, 20 DAT): 80%
inhibition at 125 g/ha (KCHSC; use rate 125 g ai/ha): 60%
inhibition at 125 g/ha (LOLMU; use rate 125 g ai/ha): 0%
inhibition at 250 g/ha (LOLMU; use rate 250 g ai/ha): 0%
pest or weed control at 1000 g/ha (LOLMU; use rate 1000 g ai/ha, 20 DAT): 55%
inhibition at 1000 g/ha (LOLMU; use rate 1000 g ai/ha): 55%
pest or weed control at 250 g/ha (PHACA; 250 g ai/ha): 0%
pest or weed control at 500 g/ha (PHACA; 500 g ai/ha): 45%
inhibition at 125 g/ha (PHACA; use rate 125 g ai/ha): 35%
pest or weed control at 250 g/ha (PHACA; use rate 250 g ai/ha, 20 DAT): 55%
inhibition at 250 g/ha (PHACA; use rate 250 g ai/ha): 55%
inhibition at 500 g/ha (PHACA; use rate 500 g ai/ha): 65%
inhibition at 250 g/ha (SORHA; 250 g ai/ha): 75%
inhibition at 500 g/ha (SORHA; 500 g ai/ha): 85%
